Data: patent US11179389B2, “Purine inhibitors of human phosphatidylinositol 3-kinase delta” (Merck Sharp & Dohme Corp., priority 2017, dated 2021)

Legend:
PI3Kdelta = PI3Kdelta (Homo sapiens (Human), UniProt O00329); assay: HTRF PI3K biochemical assay, delta isoform; conditions: 0.3 nM enzyme, 100 uM ATP, 5 uM PIP2, form screened per table (Neutral or TFA salt)
Description: (§1) HTRF PI3K Biochemical Assay to Measure Intrinsic Potency of Compound Inhibitors
(§2) The PI3-Kinase biochemical assays were developed to measure the intrinsic potency and compound dependent inhibition of the alpha, beta, delta, and gamma PI3K isoform enzymes. This assay was developed and further optimized from a kit produced by Upstate (Millipore catalog #33-047) (Millipore Sigma. Billerica Mass., USA) and has been configured for high throughput screening (HTS) and structure-activity relationship (SAR) screening. Briefly, this procedure exploits the exquisite specificity and high affinity binding of enzyme reaction […] phosphatidyl(3,4,5)triphosphate (PIP3) to the GRP1 pleckstrin homology (PH) domain to generate the signal. In the absence of PIP3, an HTRF (Homogeneous Time-Resolved Fluorescence energy transfer) complex is formed consisting of europium (Eu)-labeled anti-GST, GSTtagged GRP1-PH domain, biotin-PIP3 (biotinylated-PIP3) and streptavidin conjugated APC (Allophycocyanin). The native PIP3 produced by PI3-Kinase activity disrupts in a competitive manner the biotin-PIP3 from the pleckstrin homology (PH) domain, resulting in the loss of energy transfer (HTRF complex) and a decrease in the signal. The format of this assay is the same for all 4 isoforms of PI3K; the differences lie in the concentration of enzyme used to achieve robust assay window. The alpha, beta, and delta assays are run at 0.5, 1, and 0.3 nM enzymes and the gamma assay is run at 5 nM enzyme. The ATP concentration is 100 uM in the alpha, beta, and delta assays and 50 uM adenosine triphosphate (ATP) in the gamma assay. All reactions are run at 5 uM PIP2.
(§3) Compounds are serially diluted (3-fold in 100% DMSO) across a 384-well polypropylene source plated from column 3 to column 12 and column 13 to column 22, to yield 10 concentration dose response for each test compound. Columns 1, 2, 23 and 24 contain either only DMSO or pharmacological known control inhibitor. Once titrations are made, 2.5 nL of the compounds on 384 well plates are reformatted and transferred by acoustic dispense in quadruplicates to a 1536 assay plate (Greiner) to assay across all four PI3K isoform enzymes.
(§4) The PI3-Kinase biochemical assay was optimized using the HTRF kit provided by Upstate (Millipore). The assay kit contains six reagents: 1) 4×Reaction Buffer; 2) native PIP2 (substrate); 3) Stop (EDTA); 4) Detection Mix A (Streptavidin-APC); 5) Detection Mix B (Eu-labeled Anti-GST plus GST-tagged PH-domain): 6) Detection Mix C. In addition, the following items were obtained or purchased; PI3Kinase (catalog #'s alpha 14-602, beta 14-603, gamma 14-558 and delta 14-604 from Upstate Biotechnology now EMD Millipore, Mahopac, N.Y., USA), dithiothreitol (Sigma-Aldrich Corp. (St. Louis, Mo., USA) Catalog #D-5545), Adenosine-5′ triphosphate (InVitrogen (Waltham, Mass., USA), Cat#AS001 Å), native PIP3 (PI(3,4,5)P3, diC8, H^+, CELLSIGNALS, INC., (Columbus, Ohio, USA) Cat #907) DMSO ((Sigma-Aldrich Corp. (St. Louis. Mo., USA) Catalog #472301).
(§5) PI3Kinase Reaction Buffer is prepared by dilution the stock 1:4 with de-ionized water. DTT (DL-Dithiothreitol), phosphatidylinositol 4,5-bisphosphate (PIP2) and Biotin-PIP3 were added to 1536 assay plate at a final concentration of 5 mM, […] and 25 nM on the day of use. Enzyme addition and compound pre-incubation are initiated by the addition of 1.25 ul of PI3K (at twice its final concentration) in the 1× reaction buffer to all wells using a BioRaptor™. Plates are incubated at room temperature for 15 minutes. Reactions are initiated by addition of 1.25 ul of 2× substrate solution (PIP2 and ATP in 1× reaction buffer) using BioRaptor™. Plates are incubated in humidified chamber at room temperature for one hour. Reactions are quenched by addition of 0.625 uL of stop solution to all wells using the BioRaptor™. […]

PI3Kalpha = PI3Kalpha (Homo sapiens (Human), UniProt P42336); assay: HTRF PI3K biochemical assay, alpha isoform (for selectivity ratio); conditions: ratio PI3K-alpha IC50 value / PI3K-delta IC50 value
Sequence of PI3Kalpha (P42336 whole entry, canonical isoform): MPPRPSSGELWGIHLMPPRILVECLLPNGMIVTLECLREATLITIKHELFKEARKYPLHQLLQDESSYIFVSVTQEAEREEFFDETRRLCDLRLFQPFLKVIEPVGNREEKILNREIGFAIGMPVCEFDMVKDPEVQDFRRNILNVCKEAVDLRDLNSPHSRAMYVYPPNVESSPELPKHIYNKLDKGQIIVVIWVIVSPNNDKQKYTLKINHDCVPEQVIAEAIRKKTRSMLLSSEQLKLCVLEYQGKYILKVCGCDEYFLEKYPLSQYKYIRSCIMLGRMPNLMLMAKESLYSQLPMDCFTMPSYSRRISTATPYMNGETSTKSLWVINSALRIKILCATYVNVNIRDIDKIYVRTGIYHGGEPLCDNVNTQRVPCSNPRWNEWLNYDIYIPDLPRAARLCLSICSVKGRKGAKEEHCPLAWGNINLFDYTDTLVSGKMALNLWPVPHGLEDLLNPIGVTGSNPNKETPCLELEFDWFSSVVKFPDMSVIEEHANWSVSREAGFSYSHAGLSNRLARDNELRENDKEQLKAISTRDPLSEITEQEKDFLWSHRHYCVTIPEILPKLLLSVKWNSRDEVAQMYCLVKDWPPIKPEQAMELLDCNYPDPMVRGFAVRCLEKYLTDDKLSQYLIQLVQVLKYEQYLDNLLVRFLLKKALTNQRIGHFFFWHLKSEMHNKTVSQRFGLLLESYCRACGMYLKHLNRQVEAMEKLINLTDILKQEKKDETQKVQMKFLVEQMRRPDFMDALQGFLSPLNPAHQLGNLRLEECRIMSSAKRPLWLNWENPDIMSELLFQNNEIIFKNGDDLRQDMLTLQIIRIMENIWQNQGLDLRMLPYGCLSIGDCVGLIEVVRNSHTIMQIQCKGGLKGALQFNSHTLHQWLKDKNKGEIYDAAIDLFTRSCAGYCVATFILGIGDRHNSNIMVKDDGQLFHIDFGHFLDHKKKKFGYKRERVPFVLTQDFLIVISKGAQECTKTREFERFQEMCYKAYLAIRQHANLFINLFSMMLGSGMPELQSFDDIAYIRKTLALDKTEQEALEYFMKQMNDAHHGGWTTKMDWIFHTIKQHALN
Sequence of PI3Kalpha (P27986 whole entry partner, canonical isoform): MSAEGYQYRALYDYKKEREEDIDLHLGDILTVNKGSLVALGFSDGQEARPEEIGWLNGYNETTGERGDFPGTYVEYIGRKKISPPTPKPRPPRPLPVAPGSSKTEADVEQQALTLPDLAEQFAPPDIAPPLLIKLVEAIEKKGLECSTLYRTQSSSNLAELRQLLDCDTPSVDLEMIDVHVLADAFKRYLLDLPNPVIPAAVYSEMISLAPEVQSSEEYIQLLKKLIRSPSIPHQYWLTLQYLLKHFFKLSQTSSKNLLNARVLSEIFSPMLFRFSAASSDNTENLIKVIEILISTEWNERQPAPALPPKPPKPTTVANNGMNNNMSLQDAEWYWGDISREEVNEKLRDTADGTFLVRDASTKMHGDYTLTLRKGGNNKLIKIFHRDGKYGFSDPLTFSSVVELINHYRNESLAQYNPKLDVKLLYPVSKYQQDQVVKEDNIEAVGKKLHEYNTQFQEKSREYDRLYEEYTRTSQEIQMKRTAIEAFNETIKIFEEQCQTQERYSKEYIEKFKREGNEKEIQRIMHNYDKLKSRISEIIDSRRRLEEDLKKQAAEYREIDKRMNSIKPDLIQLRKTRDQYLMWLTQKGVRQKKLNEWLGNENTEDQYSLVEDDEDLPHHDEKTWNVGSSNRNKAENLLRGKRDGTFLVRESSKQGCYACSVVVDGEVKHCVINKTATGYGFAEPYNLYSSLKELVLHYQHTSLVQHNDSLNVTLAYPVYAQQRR
Description: as §1, §2, §3, §4, §5

Sequence of PI3Kdelta (O00329 whole entry, canonical isoform): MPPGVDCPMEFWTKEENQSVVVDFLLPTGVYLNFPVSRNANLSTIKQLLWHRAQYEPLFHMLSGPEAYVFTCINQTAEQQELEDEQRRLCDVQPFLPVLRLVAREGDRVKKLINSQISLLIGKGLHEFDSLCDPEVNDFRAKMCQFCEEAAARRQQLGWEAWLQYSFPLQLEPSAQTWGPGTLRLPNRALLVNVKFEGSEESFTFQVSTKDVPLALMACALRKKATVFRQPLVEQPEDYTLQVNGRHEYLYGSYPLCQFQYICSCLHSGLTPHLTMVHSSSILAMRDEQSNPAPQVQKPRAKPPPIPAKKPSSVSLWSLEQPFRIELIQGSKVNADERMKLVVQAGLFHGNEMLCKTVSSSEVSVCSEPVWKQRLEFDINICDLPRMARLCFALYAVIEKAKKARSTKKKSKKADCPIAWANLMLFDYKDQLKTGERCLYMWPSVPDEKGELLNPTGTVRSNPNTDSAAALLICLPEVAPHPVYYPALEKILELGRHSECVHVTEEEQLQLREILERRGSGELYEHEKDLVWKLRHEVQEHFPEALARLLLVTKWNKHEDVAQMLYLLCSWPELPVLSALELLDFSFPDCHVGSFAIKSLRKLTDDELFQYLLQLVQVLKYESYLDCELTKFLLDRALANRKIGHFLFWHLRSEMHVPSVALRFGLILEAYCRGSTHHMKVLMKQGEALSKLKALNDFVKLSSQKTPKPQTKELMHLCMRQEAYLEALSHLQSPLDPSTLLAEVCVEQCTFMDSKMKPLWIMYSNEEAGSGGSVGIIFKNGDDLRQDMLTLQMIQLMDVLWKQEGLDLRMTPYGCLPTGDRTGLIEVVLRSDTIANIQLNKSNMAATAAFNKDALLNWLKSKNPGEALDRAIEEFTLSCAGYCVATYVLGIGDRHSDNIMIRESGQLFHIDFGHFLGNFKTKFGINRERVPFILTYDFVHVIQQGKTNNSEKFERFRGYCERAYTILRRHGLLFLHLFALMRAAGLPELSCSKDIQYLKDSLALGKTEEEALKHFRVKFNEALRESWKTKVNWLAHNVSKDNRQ
Sequence of PI3Kdelta (P27986 whole entry partner, canonical isoform): as the sequence (P27986 whole entry partner, canonical isoform) above

IC50 (PI3Kdelta) [nM]	Selectivity versus PI3Kalpha (PI3Kalpha)	SMILES
29	>10	C[C@@H]1CN(c2cnc(C#N)c(-c3cnn(C)c3)n2)CCN1C(=O)[C@@H]1C[C@@H]1F [Compound 1-29, 5-[(3R)-4-{[(1S,2S)-2-fluorocyclopropyl]carbonyl}-3-methylpiperazin-1-yl]-3-(1-methyl-1H-pyrazol-4-yl)pyrazine-2-carbonitrile]
54	>10	N#Cc1ncc(N2CCC3(CC2)COC(=O)N3CC2CC2)nc1-c1cnn(C(F)F)c1 [Compound 1-12, 5-[1-(cyclopropylmethyl)-2-oxo-3-oxa-1,8-diazaspiro[4.5]dec-8-yl]-3-[1-(difluoromethyl)-1H-pyrazol-4-yl]pyrazine-2-carbonitrile]
32	>10	Cn1cc(-c2nc(N3CCC4(CC3)CNC(=O)N4CC(F)(F)F)cnc2C#N)cn1 [Compound 1-11, 3-(1-methyl-1H-pyrazol-4-yl)-5-[2-oxo-1-(2,2,2-trifluoroethyl)-1,3,8-triazaspiro[4.5]dec-8-yl]pyrazine-2-carbonitrile]
73	>10	C[C@@H]1C[C@H]1C(=O)N1CCN(c2cnc(C#N)c(-c3cnn(C(F)F)c3)n2)C[C@H]1C [Compound 1-17, 3-[1-(difluoromethyl)-1H-pyrazol-4-yl]-5-[(3R)-3-methyl-4-{[(1R,2R)-2-methylcyclopropyl]carbonyl}piperazin-1-yl]pyrazine-2-carbonitrile]
100	>10	C[C@@H]1CN(c2cnc(C#N)c(-c3cnn(C)c3)n2)CCN1C(=O)C1CC(F)(F)C1 [Compound 1-28, 5-{(3R)-4-[(3,3-difluorocyclobutyl)carbonyl]-3-methylpiperazin-1-yl}-3-(1-methyl-1H-pyrazol-4-yl)pyrazine-2-carbonitrile]
280	>10	C[C@@H]1CN(c2cnc(C#N)c(-c3cnn(C)c3)n2)CCN1C(=O)NC1CC1 [Compound 1-16, (2R)-4-[5-cyano-6-(1-methyl-1H-pyrazol-4-yl)pyrazin-2-yl]-N-cyclopropyl-2-methylpiperazine-1-carboxamide]
30	>10	CC(C)CC1OC(=O)NCC12CCN(c1cnc(C#N)c(-c3cnn(C)c3)n1)CC2 (single isomer, unassigned) [Compound 1-10, 5-[1-(2-methylpropyl)-3-oxo-2-oxa-4,9-diazaspiro[5.5]undec-9-yl]-3-(1-methyl-1H-pyrazol-4-yl)pyrazine-2-carbonitrile]
50	>10	C[C@@H]1C[C@H]1C(=O)N1CCN(c2cnc(C#N)c(-c3cn[nH]c3)n2)C[C@H]1C [Compound 1-39, 5-[(3R)-3-methyl-4-{[(1R,2R)-2-methylcyclopropyl]carbonyl}piperazin-1-yl]-3-(1H-pyrazol-4-yl)pyrazine-2-carbonitrile]
18	>10	Cn1cc(-c2nc(N3CCC4(CCC(=O)N4CC4CC(F)(F)C4)CC3)cnc2C#N)cn1 [Compound 1-20, 5-{1-[(3,3-difluorocyclobutyl)methyl]-2-oxo-1,8-diazaspiro[4.5]dec-8-yl}-3-(1-methyl-1H-pyrazol-4-yl)pyrazine-2-carbonitrile]
52	>10	Cn1cc(-c2nc(N3CCC(C)(N4CCOCC4)CC3)cnc2C#N)cn1 [Compound 1-25, 5-(4-methyl-4-morpholin-4-ylpiperidin-1-yl)-3-(1-methyl-1H-pyrazol-4-yl)pyrazine-2-carbonitrile]
210	>10	C[C@@H]1CN(c2cnc(C#N)c(-c3cnn(C)c3)n2)CCN1C(=O)NCC1CC1 [Compound 1-34, (2R)-4-[5-cyano-6-(1-methyl-1H-pyrazol-4-yl)pyrazin-2-yl]-N-(cyclopropylmethyl)-2-methylpiperazine-1-carboxamide]
18	>10	Cn1cc(-c2nc(N3CCC4(CC3)COC(=O)N4CC3CCC3)cnc2C#N)cn1 [Compound 1-23, 5-[1-(cyclobutylmethyl)-2-oxo-3-oxa-1,8-diazaspiro[4.5]dec-8-yl]-3-(1-methyl-1H-pyrazol-4-yl)pyrazine-2-carbonitrile]
60	>10	CCC1C(=O)NCC12CCN(c1cnc(C#N)c(-c3cnn(C)c3)n1)CC2 (single isomer, unassigned) [Compound 1-8, 5-(4-ethyl-3-oxo-2,8-diazaspiro[4.5]dec-8-yl)-3-(1-methyl-1H-pyrazol-4-yl)pyrazine-2-carbonitrile]
7.2	>10	CC(N1C(=O)N(CCN(C)C)CC12CCN(c1cnc(C#N)c(-c3cnn(C)c3)n1)CC2)C(F)(F)F (stereo not drawn) [Compound 1-5, 5-{3-[2-(dimethylamino)ethyl]-2-oxo-1-(2,2,2-trifluoro-1-methylethyl)-1,3,8-triazaspiro[4.5]dec-8-yl}-3-(1-methyl-1H-pyrazol-4-yl)pyrazine-2-carbonitrile]
100	>10	CO[C@H]1C[C@@H](C(=O)N2CCN(c3cnc(C#N)c(-c4cnn(C)c4)n3)C[C@H]2C)C1 [Compound 1-27, 5-{(3R)-4-[(cis-3-methoxycyclobutyl)carbonyl]-3-methylpiperazin-1-yl}-3-(1-methyl-1H-pyrazol-4-yl)pyrazine-2-carbonitrile]
160	>10	COC1CN(C(=O)N2CCN(c3cnc(C#N)c(-c4cnn(C)c4)n3)C[C@H]2C)C1 [Compound 1-36, 5-{(3R)-4-[(3-methoxyazetidin-1-yl)carbonyl]-3-methylpiperazin-1-yl}-3-(1-methyl-1H-pyrazol-4-yl)pyrazine-2-carbonitrile]
39	>10	CC(C)C[C@@H]1CN(c2cnc(C#N)c(-c3cnn(C)c3)n2)CCN1C(=O)C1CC1 [Compound 1-19, 5-[(3R)-4-(cyclopropylcarbonyl)-3-(2-methylpropyl)piperazin-1-yl]-3-(1-methyl-1H-pyrazol-4-yl)pyrazine-2-carbonitrile]
210	>10	COC(=O)N1CCN(c2cnc(C#N)c(-c3cnn(C)c3)n2)C[C@H]1C [Compound 1-38, methyl (2R)-4-[5-cyano-6-(1-methyl-1H-pyrazol-4-yl)pyrazin-2-yl]-2-methylpiperazine-1-carboxylate]
33	>10	C[C@@H]1CN(c2cnc(C#N)c(-c3cnn(C)c3)n2)CCN1C(=O)C1CC1 [Compound 1-15, 5-[(3R)-4-(cyclopropylcarbonyl)-3-methylpiperazin-1-yl]-3-(1-methyl-1H-pyrazol-4-yl)pyrazine-2-carbonitrile]
37	>10	Cn1cc(-c2nc(N3CCC4(CCC(=O)N4CC(F)(F)F)CC3)cnc2C#N)cn1 [Compound 1-21, 3-(1-methyl-1H-pyrazol-4-yl)-5-[2-oxo-1-(2,2,2-trifluoroethyl)-1,8-diazaspiro[4.5]dec-8-yl]pyrazine-2-carbonitrile]
300	>10	C[C@@H]1CN(c2cnc(C#N)c(-c3cnn(C)c3)n2)CCN1C(=O)N1CC2(COC2)C1 [Compound 1-33, 5-[(3R)-3-methyl-4-(2-oxa-6-azaspiro[3.3]hept-6-ylcarbonyl)piperazin-1-yl]-3-(1-methyl-1H-pyrazol-4-yl)pyrazine-2-carbonitrile]
